Where a name gives a salt, the structure may show the parent alone.
Assays:
[1] = system: BT474 (human breast carcinoma); assay: In vitro tumor cell proliferation assay (Cell Titer-Glo luminescent cell viability), BT474; format: cell-based; conditions: BT-474, 72 h, BT474 cells, 72 hours of drug exposure, ATP luminescence readout, read-out: IC50, anti-proliferative activity (inhibition of cell proliferation)
In short: (§1)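 Seeding density 2.5×10^3 cells/well; 72 h drug exposure at 37° C; endpoint CellTiter-Glo luminescence, reported as IC50.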

[2] = system: A431 cells (human epidermoid carcinoma); assay: In vitro tumor cell proliferation assay (Cell Titer-Glo luminescent cell viability), A431; format: cell-based; conditions: A-431, 72 h, 72 hours of drug exposure, ATP luminescence readout, read-out: IC50, anti-proliferative activity (inhibition of cell proliferation)
In short: as §1

Compound: CC(C)NC[C@@H](O)Cn1ncc2c1CCc1c-2sc2ncnc(Nc3ccc(OCc4cccc(F)c4)c(Cl)c3)c12 [Example 163, (2R)-1-[6-({3-chloro-4-[(3-fluorobenzyl)oxy]phenyl}amino)-4,5-dihydro-3H-pyrimido[5′,4′:4,5]thieno[2,3-e]indazol-3-yl]-3-(isopropylamino)propan-2-ol trifluoroacetate (salt)]
- IC50 [1]: ≤ 5 µM
- IC50 [2]: ≤ 50 µM

Compound: Cc1cc(Oc2ccc(Nc3ncnc4sc5c(c34)CCc3nn(CCN4CCN(C)CC4)cc3-5)c(F)c2)ccn1 [Example 341, N-{2-fluoro-4-[(2-methylpyridin-4-yl)oxy]phenyl}-2-[2-(4-methylpiperazin-1-yl)ethyl]-4,5-dihydro-2H-pyrimido[5′,4′:4,5]thieno[2,3-e]indazol-6-amine]
- IC50 [1]: ≤ 5 µM
- IC50 [2]: ≤ 50 µM

Compound: NC[C@@H](O)Cn1cc2c(n1)CCc1c-2sc2ncnc(Nc3ccc(OCc4cccc(F)c4)c(Cl)c3)c12 [Example 160, (2R)-1-amino-3-[6-({3-chloro-4-[(3-fluorobenzyl)oxy]phenyl}amino)-4,5-dihydro-2H-pyrimido[5′,4′:4,5]thieno[2,3-e]indazol-2-yl]propan-2-ol trifluoroacetate (salt)]
- IC50 [1]: ≤ 5 µM
- IC50 [2]: ≤ 50 µM

Compound: CN(C)C[C@@H](O)Cn1cc2c(n1)CCc1c-2sc2ncnc(Nc3ccc(OCc4cccc(F)c4)c(Cl)c3)c12 [Example 156, (2R)-1-[6-({3-chloro-4-[(3-fluorobenzyl)oxy]phenyl}amino)-4,5-dihydro-2H-pyrimido[5′,4′:4,5]thieno[2,3-e]indazol-2-yl]-3-(dimethylamino)propan-2-ol trifluoroacetate (salt)]
- IC50 [1]: ≤ 1 µM
- IC50 [2]: ≤ 50 µM

Compound: Cc1cccc(COc2ccc(Nc3ncnc4sc5c(c34)CCc3n[nH]cc3-5)cc2Cl)n1 [Example 120, N-{3-chloro-4-[(6-methylpyridin-2-yl)methoxy]phenyl}-4,5-dihydro-2H-pyrimido[5′,4′:4,5]thieno[2,3-e]indazol-6-amine]
- IC50 [1]: ≤ 5 µM
- IC50 [2]: ≤ 5 µM

Compound: CCN1CCN(C(=O)Cn2cc3c(n2)CCc2c-3sc3ncnc(Nc4ccc(OCc5cccc(F)c5)c(Cl)c4)c23)CC1 [Example 185, N-{3-chloro-4-[(3-fluorobenzyl)oxy]phenyl}-2-[2-(4-ethylpiperazin-1-yl)-2-oxoethyl]-4,5-dihydro-2H-pyrimido[5′,4′:4,5]thieno[2,3-e]indazol-6-amine]
- IC50 [1]: ≤ 1 µM
- IC50 [2]: ≤ 5 µM

Compound: O[C@H](CN1CCCCC1)Cn1cc2c(n1)CCc1c-2sc2ncnc(Nc3ccc(OCc4cccc(F)c4)c(Cl)c3)c12 [Example 148, (2R)-1-[6-({3-chloro-4-[(3-fluorobenzyl)oxy]phenyl}amino)-4,5-dihydro-2H-pyrimido[5′,4′:4,5]thieno[2,3-e]indazol-2-yl]-3-piperidin-1-ylpropan-2-ol trifluoroacetate (salt)]
- IC50 [1]: ≤ 1 µM
- IC50 [2]: ≤ 50 µM

Compound: CN1CCN(CCn2cc3c(n2)CCc2c-3sc3ncnc(Nc4ccc(SCc5ccncc5)cc4)c23)CC1 [Example 342, 2-[2-(4-methylpiperazin-1-yl)ethyl]-N-{4-[(pyridin-4-ylmethyl)thio]phenyl}-4,5-dihydro-2H-pyrimido[5′,4′:4,5]thieno[2,3-e]indazol-6-amine]
- IC50 [1]: ≤ 5 µM
- IC50 [2]: ≤ 50 µM

Compound: Fc1ccc(Nc2ncnc3sc4c(c23)CCc2c-4cnn2CCn2ccnc2)cc1Cl [Example 97, N-(3-chloro-4-fluorophenyl)-3-[2-(1H-imidazol-1-yl)ethyl]-4,5-dihydro-3H-pyrimido[5′,4′:4,5]thieno[2,3-e]indazol-6-amine]
- IC50 [1]: ≤ 5 µM
- IC50 [2]: ≤ 5 µM

Compound: Fc1cccc(Cn2ncc3cc(Nc4ncnc5sc6c(c45)CCc4nn(CCN5CCNCC5)cc4-6)ccc32)c1 [Example 284, N-[1-(3-fluorobenzyl)-1H-indazol-5-yl]-2-(2-piperazin-1-ylethyl)-4,5-dihydro-2H-pyrimido[5′,4′:4,5]thieno[2,3-e]indazol-6-amine]
- IC50 [1]: ≤ 1 µM
- IC50 [2]: ≤ 5 µM

Compound: Fc1ccc(Nc2ncnc3sc4c(c23)CCc2nn(CCNCCN3CCOCC3)cc2-4)cc1Cl [Example 7, N-(3-chloro-4-fluorophenyl)-2-{2-[(2-morpholin-4-ylethyl)amino]ethyl]-4,5-dihydro-2H-pyrimido[5′,4′:4,5]thieno[2,3-e]indazol-6-amine]
- IC50 [1]: ≤ 1 µM
- IC50 [2]: ≤ 5 µM

Compound: Fc1cccc(COc2ccc(Nc3ncnc4sc5c(c34)CCc3nn(CCn4ccnc4)cc3-5)cc2Cl)c1 [Example 77, N-{3-chloro-4-[(3-fluorobenzyl)oxy]phenyl}-2-[2-(1H-imidazol-1-yl)ethyl]-4,5-dihydro-2H-pyrimido[5′,4′:4,5]thieno[2,3-e]indazol-6-amine]
- IC50 [1]: ≤ 1 µM
- IC50 [2]: ≤ 5 µM

Compound: O[C@H]1CCN(CCn2cc3c(n2)CCc2c-3sc3ncnc(Nc4ccc(F)c(Cl)c4)c23)C1 [Example 30, (3S)-1-(2-{6-[(3-chloro-4-fluorophenyl)amino]-4,5-dihydro-2H-pyrimido[5′,4′:4,5]thieno[2,3-e]indazol-2-yl}ethyl)pyrrolidin-3-ol]
- IC50 [1]: ≤ 5 µM
- IC50 [2]: ≤ 5 µM

Compound: CC(C)(C)[Si](C)(C)OCCn1cc2c(n1)CCc1c-2sc2ncnc(Nc3ccc(OCc4ccccn4)c(Cl)c3)c12 [Example 98, 2-(2-{[tert-butyl(dimethyl)silyl]oxy}ethyl)-N-[3-chloro-4-(pyridin-2-ylmethoxy)phenyl]-4,5-dihydro-2H-pyrimido[5′,4′:4,5]thieno[2,3-e]indazol-6-amine]
- IC50 [1]: ≤ 1 µM
- IC50 [2]: ≤ 50 µM

Compound: CN1CCC(n2cc3c(n2)CCc2c-3sc3ncnc(Nc4ccc(OCc5cccc(F)c5)c(Cl)c4)c23)CC1 [Example 228, N-{3-chloro-4-[(3-fluorobenzyl)oxy]phenyl}-2-(1-methylpiperidin-4-yl)-4,5-dihydro-2H-pyrimido[5′,4′:4,5]thieno[2,3-e]indazol-6-amine]
- IC50 [1]: ≤ 1 µM
- IC50 [2]: ≤ 5 µM

Compound: Clc1cc(Nc2ncnc3sc4c(c23)CCc2nn(CCBr)cc2-4)ccc1OCc1ccccn1 [Example 101, 2-(2-bromoethyl)-N-[3-chloro-4-(pyridin-2-ylmethoxy)phenyl]-4,5-dihydro-2H-pyrimido[5′,4′:4,5]thieno[2,3-e]indazol-6-amine]
- IC50 [1]: ≤ 1 µM
- IC50 [2]: ≤ 50 µM

Compound: OCCNCCn1cc2c(n1)CCc1c-2sc2ncnc(Nc3ccc(F)c(Cl)c3)c12 [Example 19, 2-[(2-{6-[(3-chloro-4-fluorophenyl)amino]-4,5-dihydro-2H-pyrimido[5′,4′:4,5]thieno[2,3-e]indazol-2-yl}ethyl)amino]ethanol]
- IC50 [1]: ≤ 5 µM
- IC50 [2]: ≤ 5 µM

Compound: Fc1cccc(COc2ccc(Nc3ncnc4sc5c(c34)CCc3c-5cnn3CCN3CCCCC3)cc2Cl)c1 [Example 266, trifluoroacetate]
- IC50 [1]: ≤ 1 µM
- IC50 [2]: ≤ 5 µM

Compound: CCN1CCN(CCn2cc3c(n2)CCc2c-3sc3ncnc(Nc4ccc5c(cnn5Cc5cccc(F)c5)c4)c23)CC1 [Example 283, 2-[2-(4-ethylpiperazin-1-yl)ethyl]-N-[1-(3-fluorobenzyl)-1H-indazol-5-yl]-4,5-dihydro-2H-pyrimido[5′,4′:4,5]thieno[2,3-e]indazol-6-amine]
- IC50 [1]: ≤ 1 µM
- IC50 [2]: ≤ 5 µM

Compound: CN1CCN(CCn2cc3c(n2)CCc2c-3sc3ncnc(Nc4ccc(Oc5cccnc5)c(F)c4)c23)CC1 [Example 343, N-[3-fluoro-4-(pyridin-3-yloxy)phenyl]-2-[2-(4-methylpiperazin-1-yl)ethyl]-4,5-dihydro-2H-pyrimido[5′,4′:4,5]thieno[2,3-e]indazol-6-amine]
- IC50 [1]: ≤ 5 µM
- IC50 [2]: ≤ 50 µM

Compound: CCc1nccn1CCn1cc2c(n1)CCc1c-2sc2ncnc(Nc3ccc(F)c(Cl)c3)c12 [Example 38, N-(3-chloro-4-fluorophenyl)-2-[2-(2-ethyl-1H-imidazol-1-yl)ethyl]-4,5-dihydro-2H-pyrimido[5′,4′:4,5]thieno[2,3-e]indazol-6-amine]
- IC50 [1]: ≤ 5 µM
- IC50 [2]: ≤ 5 µM

Compound: Cc1nccn1CCn1cc2c(n1)CCc1c-2sc2ncnc(Nc3ccc(F)c(Cl)c3)c12 [Example 37, N-(3-chloro-4-fluorophenyl)-2-[2-(2-methyl-1H-imidazol-1-yl)ethyl]-4,5-dihydro-2H-pyrimido[5′,4′:4,5]thieno[2,3-e]indazol-6-amine]
- IC50 [1]: ≤ 5 µM
- IC50 [2]: ≤ 5 µM

Compound: OC1CCN(CCn2cc3c(n2)CCc2c-3sc3ncnc(Nc4ccc5c(cnn5Cc5cccc(F)c5)c4)c23)C1 (stereo not shown) [Example 286, 1-[2-(6-{[1-(3-fluorobenzyl)-1H-indazol-5-yl]amino}-4,5-dihydro-2H-pyrimido[5′,4′:4,5]thieno[2,3-e]indazol-2-yl)ethyl]pyrrolidin-3-ol]
- IC50 [1]: ≤ 1 µM
- IC50 [2]: ≤ 5 µM

Compound: O[C@H](CN1CCSCC1)Cn1cc2c(n1)CCc1c-2sc2ncnc(Nc3ccc(OCc4cccc(F)c4)c(Cl)c3)c12 [Example 139, (2R)-1-[6-({3-chloro-4-[(3-fluorobenzyl)oxy]phenyl}amino)-4,5-dihydro-2H-pyrimido[5′,4′:4,5]thieno[2,3-e]indazol-2-yl]-3-thiomorpholin-4-ylpropan-2-ol]
- IC50 [1]: ≤ 1 µM
- IC50 [2]: ≤ 50 µM

Compound: CCN(CC)CC(=O)N1CCC(n2cc3c(n2)CCc2c-3sc3ncnc(Nc4ccc(OCc5cccc(F)c5)c(Cl)c4)c23)CC1 [Example 220, N-{3-chloro-4-[(3-fluorobenzyl)oxy]phenyl}-2-{1-[(diethylamino)acetyl]piperidin-4-yl}-4,5-dihydro-2H-pyrimido[5′,4′:4,5]thieno[2,3-e]indazol-6-amine]
- IC50 [1]: ≤ 1 µM
- IC50 [2]: ≤ 5 µM

Compound: COCCN(C)CCCn1ncc2c1CCc1c-2sc2ncnc(Nc3ccc(OCc4cccc(F)c4)c(Cl)c3)c12 [Example 270, N-{3-chloro-4-[(3-fluorobenzyl)oxy]phenyl}-3-{3-[(2-methoxyethyl)(methyl)amino]propyl}-4,5-dihydro-3H-pyrimido[5′,4′:4,5]thieno[2,3-e]indazol-6-amine]
- IC50 [1]: ≤ 1 µM
- IC50 [2]: ≤ 50 µM

— patent publication US8207172B2 (Bayer Intellectual Property GmbH, priority 2004, dated 2012)
